Results on 28 compounds are retold here after patent US12209081B2 (Katholieke Universiteit Leuven, priority 2020, dated 2025).

Test [1] relates to TRPM3. Particulars: rat pain model; Chen L et al. 2014; cited from earlier work.
The target in test [2] is TRPM3 (Homo sapiens (Human), UniProt Q9HCF6). The settings on record: Wagner et al., 2008; cited from earlier work.
The subject of test [3] is TRPM3. The settings on record: wild type mice vs knock-out TRPM3 mice; cited from earlier work.
Test [4] deals with mouse TRPM3α2 (mTRPM3) ion channel (Mus musculus (Mouse), UniProt J9SQF3). As to the kind of experiment: TRPM3 ion channel driven Ca2+ uptake, Fluo-4 AM assay, mTRPM3alpha2 overexpressing flip-in HEK293 cells stimulated with pregnenolone sulfate. The format is cell-based. The procedure, abridged:
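Read-out is Ca2+ influx via Fluo-4 AM fluorescence at 485/535 nm, taken right after seeding ~2000 cells/well onto compound with 50 μM PS. Inhibition computed from RFU between vehicle-stimulated and positive-control-inhibitor wells; cells were mTRPM3α2-overexpressing flip-in HEK293.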

Where [5] appears, read: PS (50 μM) stimulated, cpd 001-199.
Where [6] appears, read: PS (50 μM) stimulated, cpds. 400-499.
Where [7] appears, read: PS (50 μM) stimulated, cpds. 500-599.
The mark [8] stands for this setting: PS (50 μM) stimulated, cpds. 608-666.

Structures can show the parent of a compound that is named as a salt.

Sequence of mouse TRPM3α2 (mTRPM3) ion channel (J9SQF3 other isoform, or with tags, fused parts or gaps): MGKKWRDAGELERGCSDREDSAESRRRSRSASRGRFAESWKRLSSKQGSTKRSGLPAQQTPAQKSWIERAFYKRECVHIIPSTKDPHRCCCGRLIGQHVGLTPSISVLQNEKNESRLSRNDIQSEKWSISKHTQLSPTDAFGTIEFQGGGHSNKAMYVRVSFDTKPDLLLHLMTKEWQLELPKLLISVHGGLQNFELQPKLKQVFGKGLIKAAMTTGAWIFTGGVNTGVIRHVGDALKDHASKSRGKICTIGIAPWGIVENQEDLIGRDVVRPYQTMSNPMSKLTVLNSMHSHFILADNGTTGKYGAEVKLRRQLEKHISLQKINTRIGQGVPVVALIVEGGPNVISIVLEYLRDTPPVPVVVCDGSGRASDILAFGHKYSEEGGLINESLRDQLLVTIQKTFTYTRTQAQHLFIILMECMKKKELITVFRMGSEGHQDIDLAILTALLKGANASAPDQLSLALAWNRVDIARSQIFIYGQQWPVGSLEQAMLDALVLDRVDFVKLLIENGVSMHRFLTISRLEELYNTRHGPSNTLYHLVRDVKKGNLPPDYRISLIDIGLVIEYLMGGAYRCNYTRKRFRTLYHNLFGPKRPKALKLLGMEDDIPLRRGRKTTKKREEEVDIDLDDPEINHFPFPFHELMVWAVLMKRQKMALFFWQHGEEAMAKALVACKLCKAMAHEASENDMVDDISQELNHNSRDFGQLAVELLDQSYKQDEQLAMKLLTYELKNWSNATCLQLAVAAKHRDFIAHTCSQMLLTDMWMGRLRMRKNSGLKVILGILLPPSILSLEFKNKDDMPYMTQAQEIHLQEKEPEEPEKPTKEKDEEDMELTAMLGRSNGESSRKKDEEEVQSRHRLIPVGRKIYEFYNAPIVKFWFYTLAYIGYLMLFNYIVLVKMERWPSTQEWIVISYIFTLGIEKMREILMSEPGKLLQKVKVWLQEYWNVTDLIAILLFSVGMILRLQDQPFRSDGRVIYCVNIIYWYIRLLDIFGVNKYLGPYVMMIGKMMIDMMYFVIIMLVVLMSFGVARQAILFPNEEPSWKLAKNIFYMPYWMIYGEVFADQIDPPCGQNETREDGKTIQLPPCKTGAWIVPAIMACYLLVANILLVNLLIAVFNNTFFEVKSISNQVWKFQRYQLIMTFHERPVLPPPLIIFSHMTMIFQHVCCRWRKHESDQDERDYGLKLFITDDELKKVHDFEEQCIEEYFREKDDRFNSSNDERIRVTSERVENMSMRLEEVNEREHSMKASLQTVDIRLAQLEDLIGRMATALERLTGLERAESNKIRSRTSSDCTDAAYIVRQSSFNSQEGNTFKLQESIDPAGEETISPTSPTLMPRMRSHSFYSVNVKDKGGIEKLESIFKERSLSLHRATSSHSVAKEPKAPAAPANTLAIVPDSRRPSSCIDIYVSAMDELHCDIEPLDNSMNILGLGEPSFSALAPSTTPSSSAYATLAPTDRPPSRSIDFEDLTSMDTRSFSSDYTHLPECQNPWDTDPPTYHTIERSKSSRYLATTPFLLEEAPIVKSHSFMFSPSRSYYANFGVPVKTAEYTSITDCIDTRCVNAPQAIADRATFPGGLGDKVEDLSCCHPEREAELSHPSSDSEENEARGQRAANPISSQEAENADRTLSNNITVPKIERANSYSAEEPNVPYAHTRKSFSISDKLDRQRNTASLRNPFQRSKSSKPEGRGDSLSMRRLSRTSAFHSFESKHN
Sequence of TRPM3 (Homo sapiens (Human), UniProt Q9HCF6) (Q9HCF6 whole entry, species assumed): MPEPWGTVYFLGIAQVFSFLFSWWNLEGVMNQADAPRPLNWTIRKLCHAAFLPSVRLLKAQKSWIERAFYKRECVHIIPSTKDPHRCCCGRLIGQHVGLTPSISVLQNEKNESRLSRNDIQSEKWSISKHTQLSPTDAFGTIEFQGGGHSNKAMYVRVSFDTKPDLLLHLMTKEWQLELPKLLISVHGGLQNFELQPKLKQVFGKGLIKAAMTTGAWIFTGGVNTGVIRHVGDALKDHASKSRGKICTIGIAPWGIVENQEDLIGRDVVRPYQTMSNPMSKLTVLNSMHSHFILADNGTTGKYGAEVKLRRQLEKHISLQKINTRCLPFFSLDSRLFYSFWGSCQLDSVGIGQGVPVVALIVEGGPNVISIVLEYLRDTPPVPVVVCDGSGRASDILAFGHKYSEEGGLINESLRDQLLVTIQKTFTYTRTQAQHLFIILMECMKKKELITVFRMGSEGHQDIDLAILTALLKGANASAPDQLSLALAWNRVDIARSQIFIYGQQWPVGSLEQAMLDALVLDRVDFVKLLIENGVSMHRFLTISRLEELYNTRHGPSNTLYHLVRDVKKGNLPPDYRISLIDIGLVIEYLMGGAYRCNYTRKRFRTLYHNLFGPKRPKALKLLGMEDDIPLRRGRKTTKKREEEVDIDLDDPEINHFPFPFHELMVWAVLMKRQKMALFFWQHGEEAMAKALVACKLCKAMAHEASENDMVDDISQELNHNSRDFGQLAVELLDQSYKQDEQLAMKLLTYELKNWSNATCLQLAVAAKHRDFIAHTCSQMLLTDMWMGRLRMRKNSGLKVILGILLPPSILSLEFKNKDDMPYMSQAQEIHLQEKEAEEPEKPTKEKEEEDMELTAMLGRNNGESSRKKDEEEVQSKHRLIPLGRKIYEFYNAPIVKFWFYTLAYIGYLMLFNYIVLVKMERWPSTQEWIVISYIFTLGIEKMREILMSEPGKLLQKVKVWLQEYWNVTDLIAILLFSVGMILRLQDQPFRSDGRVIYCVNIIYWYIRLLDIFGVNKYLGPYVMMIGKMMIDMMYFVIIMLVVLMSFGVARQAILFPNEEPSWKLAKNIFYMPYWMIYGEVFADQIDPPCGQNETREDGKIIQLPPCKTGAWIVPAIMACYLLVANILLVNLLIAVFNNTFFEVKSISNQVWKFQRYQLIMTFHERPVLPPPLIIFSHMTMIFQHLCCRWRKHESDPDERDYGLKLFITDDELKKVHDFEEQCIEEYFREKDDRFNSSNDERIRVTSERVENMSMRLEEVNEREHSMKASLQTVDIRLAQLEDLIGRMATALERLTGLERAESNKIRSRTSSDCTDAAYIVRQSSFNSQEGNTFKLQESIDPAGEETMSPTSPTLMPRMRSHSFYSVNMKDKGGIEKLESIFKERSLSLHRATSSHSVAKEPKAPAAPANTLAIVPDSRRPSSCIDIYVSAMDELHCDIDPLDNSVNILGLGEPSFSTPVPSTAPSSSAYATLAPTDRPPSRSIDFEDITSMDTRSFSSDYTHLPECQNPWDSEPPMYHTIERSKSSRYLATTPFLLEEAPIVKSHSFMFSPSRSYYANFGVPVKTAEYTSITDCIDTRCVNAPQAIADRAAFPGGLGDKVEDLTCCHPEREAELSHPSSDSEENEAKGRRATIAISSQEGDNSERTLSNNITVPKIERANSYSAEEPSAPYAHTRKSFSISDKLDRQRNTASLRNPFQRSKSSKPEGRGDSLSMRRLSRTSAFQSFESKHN

Take `O=C1C[C@@H](c2ccc(O)cc2)Oc2cc(O)ccc21` [Liquiritigenin]: the “mechanical and cold hyperalgesia” value in test [1] was “decrease mechanical and cold hyperalgesia”.
In the case of `CC(=O)C1CCC2C3CC=C4CC(OS(=O)(=O)O)CCC4(C)C3CCC12C` (centres unmarked) [pregnenolone sulfate, Pregnenolone sulfate], the “activator of TRPM3” value in test [2] is recorded as “potent known activator of TRPM3”. Moreover, in test [3], the evoked pain entry was “evoked pain in wild type mice but not in knock-out TRPM3 mice”.
In the case of `Cc1oc2ccc(OCc3cccnc3C(F)(F)F)cc2c1C(=O)NC1CCOC1` (single isomer, unassigned) [cpd 148-En 1], the IC50 – broadly, the concentration at which inhibition is half-maximal – in test [4] (setting [5]) was less than 1 µM.
Consider `Cc1ncsc1COc1ccc2oc(C)c(C(=O)NC(CO)CN(C)C)c2c1` (single isomer, unassigned) [413-En 1, N-(1-(dimethylamino)-3-hydroxypropan-2-yl)-2-methyl-5-((4-methylthiazol-5-yl)methoxy)benzofuran-3-carboxamide], for which the IC50 in test [4] (setting [6]) is less than 1 µM.
In turn, `Cc1oc2ccc(OCc3cccnc3C(N)=O)cc2c1C(=O)NC1(CO)CCOCC1` [compound 325] showed an IC50 in test [4] (PS 50 μM, cpds 300-399) of 1 to 20 µM.
`Cc1oc2ccc(OCc3nccs3)cc2c1C(=O)NC1CCNCC1(F)F` (single isomer, unassigned) [cpd 560-En 1] returned an IC50 in test [4] (setting [7]) of less than 1 µM.
For the compound `Cc1ncsc1COc1ccc2oc(C)c(C(=O)NC3COCCNC3=O)c2c1` (single isomer, unassigned) [cpd 317-En 1], the IC50 in test [4] (PS 50 μM, cpds 300-399) is less than 1 µM.
As to `Cc1ncsc1COc1ccc2oc(C)c(C(=O)NCC(C)(C)O)c2c1` [compound 506, N-(2-hydroxy-2-methylpropyl)-2-methyl-5-((4-methylthiazol-5-yl)methoxy)benzofuran-3-carboxamide], the IC50 in test [4] (setting [7]) is less than 1 µM.
As for `Cc1oc2ccc(OCc3cccnc3C(F)(F)F)cc2c1C(=O)NC1COCC1(F)F` (centres unmarked) [compound 664, N-(4,4-difluorotetrahydrofuran-3-yl)-2-methyl-5-((2-(trifluoromethyl)pyridin-3-yl)methoxy)benzofuran-3-carboxamide], the IC50 in test [4] (setting [8]) was less than 1 µM.
Compound `Cc1ncsc1COc1ccc2oc(C)c(C(=O)NC3(CNCC(F)(F)F)CCC3)c2c1` [compound 145, 2-methyl-5-((4-methylthiazol-5-yl)methoxy)-N-(1-(((2,2,2-trifluoroethyl)amino)methyl)cyclobutyl) -benzofuran-3-carboxamide] yielded an IC50 in test [4] (setting [5]) of less than 1 µM.
On the same count and under the same terms, to `COc1ncccc1COc1ccc2oc(C)c(C(=O)NC3CCN(C)CC3)c2c1` [compound 051, 5-((2-methoxypyridin-3-yl)methoxy)-2-methyl-N-(1-methylpiperidin-4-yl)benzofuran-3-carboxamide] belongs less than 1 µM.
Compound `Cc1oc2ccc(OCc3cccnc3O)cc2c1C(=O)NC1COCC1(F)F` (single isomer, unassigned) [cpd 648-En 1] displayed an IC50 in test [4] (setting [8]) of less than 1 µM.
Take `Cc1ncsc1COc1ccc2oc(C)c(C(=O)N[C@@H]3C(=O)NC[C@H]3O)c2c1` [compound 392, N-((3S,4R)-4-hydroxy-2-oxopyrrolidin-3-yl)-2-methyl-5-((4-methylthiazol-5-yl)methoxy)benzofuran-3-carboxamide]: the IC50 in test [4] (PS 50 μM, cpds 300-399) is less than 1 µM.
The compound `Cc1ncc(COc2ccc3oc(C)c(C(=O)NC4(C(N)=O)CCC4)c3c2)s1` [compound 471, N-(1-carbamoylcyclobutyl)-2-methyl-5-((2-methylthiazol-5-yl)methoxy)benzofuran-3-carboxamide] had an IC50 in test [4] (setting [6]) of less than 1 µM.
In test [4] (setting [8]), `Cc1oc2ccc(OCc3cccnc3)cc2c1C(=O)NC(CO)C(N)=O` (centres unmarked) [compound 662, N-(1-amino-3-hydroxy-1-oxopropan-2-yl)-2-methyl-5-(pyridin-3-ylmethoxy)benzofuran-3-carboxamide] yielded an IC50 of less than 1 µM.
With `Cc1oc2ccc(OCc3cccnc3C(F)(F)F)c(C#N)c2c1C(=O)NC1CCNCC1(F)F` (single isomer, unassigned) [191-En 1, 4-cyano-N-(3,3-difluoropiperidin-4-yl)-2-methyl-5-((2-(trifluoromethyl)pyridin-3-yl)methoxy) -benzofuran-3-carboxamide], the IC50 in test [4] (setting [5]) is greater than 20 µM.
Compound `Cc1oc2ccc(OCc3ccnn3C)cc2c1C(=O)O` [compound 008, 2-methyl-5-((1-methyl-1H-pyrazol-5-yl)methoxy)benzofuran-3-carboxylic acid] registered an IC50 in test [4] (setting [5]) greater than 20 µM.
In turn, `Cc1oc2ccc(OCc3c(F)cnn3C)cc2c1C(=O)NC1(CO)CCOCC1` [compound 357, 5-((4-fluoro-1-methyl-1H-pyrazol-5-yl)methoxy)-N-(4-(hydroxymethyl)tetrahydro-2H-pyran-4-yl)-2-methylbenzofuran-3-carboxamide] showed an IC50 in test [4] (PS 50 μM, cpds 300-399) of less than 1 µM.
In test [4] (setting [7]), `Cc1ncsc1COc1ccc2oc(C)c(C(=O)NC(=O)C3(N(C)C)COC3)c2c1` [compound 508, N-(3-(dimethylamino)oxetane-3-carbonyl)-2-methyl-5-((4-methylthiazol-5-yl)methoxy)benzofuran-3-carboxamide] gave an IC50 of less than 1 µM.
`Cc1oc2ccc(OCc3cccnc3)cc2c1C(=O)NC1CCNC1=O` (centres unmarked) [compound 027, 2-methyl-N-(2-oxopyrrolidin-3-yl)-5-(pyridin-3-ylmethoxy)benzofuran-3-carboxamide] registered an IC50 in test [4] (setting [5]) of less than 1 µM.
Take `Cc1ncsc1COc1ccc2oc(C)c(C(=O)NC3CNCC3(F)F)c2c1` (single isomer, unassigned) [cpd 106-En 1]: the IC50 in test [4] (setting [5]) is less than 1 µM.
Same read-out and setting: to `Cc1oc2ccc(OCc3cccnc3)cc2c1C(=O)N[C@H]1CCNC1` [compound 022, (S)-2-methyl-5-(pyridin-3-ylmethoxy)-N-(pyrrolidin-3-yl)benzofuran-3-carboxamide] belongs less than 1 µM; to `Cc1oc2ccc(OCc3cccnc3C(F)(F)F)cc2c1C(=O)NC1CCN(CC(F)(F)F)C1` (single isomer, unassigned) [149-En 1, 2-methyl-N-(1-(2,2,2-trifluoroethyl)pyrrolidin-3-yl)-5-((2-(trifluoromethyl)pyridin-3-yl)methoxy) -benzofuran-3-carboxamide], less than 1 µM.
Take `Cc1oc2ccc(OCc3ccccn3)cc2c1C(=O)NC(C)(C)C(N)=O` [compound 442, N-(1-amino-2-methyl-1-oxopropan-2-yl)-2-methyl-5-(pyridin-2-ylmethoxy)benzofuran-3-carboxamide]: in test [4] (setting [6]), the IC50 is less than 1 µM.
Take `Cc1ncc(COc2ccc3oc(C)c(C(=O)NC4(C(N)=O)COC4)c3c2)s1` [compound 580, N-(3-carbamoyloxetan-3-yl)-2-methyl-5-((2-methylthiazol-5-yl)methoxy)benzofuran-3-carboxamide]: the IC50 in test [4] (setting [7]) was less than 1 µM.
In the case of `Cc1ncsc1COc1ccc2oc(C)c(C(=O)NC3CCNC3=O)c2c1` (centres unmarked) [compound 042, 2-methyl-5-((4-methylthiazol-5-yl)methoxy)-N-(2-oxopyrrolidin-3-yl)benzofuran-3-carboxamide], the IC50 in test [4] (setting [5]) is less than 1 µM.
`Cc1oc2ccc(OCc3cn(C)nn3)cc2c1C(=O)NC1CCNCC1(F)F` (single isomer, unassigned) [cpd 540-En 1] registered an IC50 in test [4] (setting [7]) of 1 to 20 µM.
In turn, `Cc1oc2ccc(OCc3cccnc3OC(F)F)cc2c1C(=O)NC1(CO)CCOCC1` [compound 339, 5-((2-(difluoromethoxy)pyridin-3-yl)methoxy)-N-(4-(hydroxymethyl)tetrahydro-2H-pyran-4-yl) -2-methylbenzofuran-3-carboxamide] yielded an IC50 in test [4] (PS 50 μM, cpds 300-399) of less than 1 µM.
